Experimental data as given in the OPERA property sets (Mansouri et al. 2018).

Settings: not given
For NC(=O)CI, the melting point was 94.5 °C and the ready biodegradability was “not readily biodegradable”.
CCCC1CCCCC1C (stereo unspecified) showed a boiling point of 176 °C.
Compound CCCCCCCC(=O)CCCCCCC has a boiling point of 291 °C, a log10 vapour pressure (mmHg) of -3.39 and a melting point of 43 °C.
In the case of IC(I)(I)I, the melting point is reported as 171 °C.
C=CCCCCCCCCC(=O)OC gave a boiling point of 248 °C and a melting point of -27.5 °C.
Work on C=C(C)C(C)Cl (stereo unspecified) yielded a boiling point of 94 °C.
CCn1cc(C(=O)O)c(=O)c2cnc(N3CCCC3)nc21 gave a melting point of 315 °C.
Work on CCCC(=O)OCc1ccco1 yielded a boiling point of 212 °C.
Compound Clc1cc2oc3c(Cl)c(Cl)c(Cl)c(Cl)c3c2cc1Cl has a log10 Koa of 10.8.
CC(=O)C1CCc2ccccc2C1=O (stereo unspecified) gave a melting point of 56 °C.
C1CCCOCC1 gave a boiling point of 119 °C.
COc1cc2nc(N3CCN(C(=O)C4CCCO4)CC3)nc(N)c2cc1OC (stereo unspecified) gave a melting point of 273 °C.
Clc1cc(-c2c(Cl)cccc2Cl)c(Cl)c(Cl)c1Cl showed a log10 Henry constant (atm·m³/mol) of -4.41.
Work on C[C@]12CC[C@@H]3c4ccc(O)cc4CC[C@H]3[C@@H]1CCC2=O yielded a melting point of 260 °C.
For CC(=O)OCc1cnc(N)c(C#N)n1, the ready biodegradability was “readily biodegradable”.
For CCCC(C)CBr (stereo unspecified), the boiling point was 141 °C.
Work on Cc1cc(C)c(C)c(C)c1 yielded a boiling point of 198 °C, a log10 biodegradation half-life (days) of 0.477 and a log10 vapour pressure (mmHg) of -0.303. It also gave a melting point of -23.7 °C.
With CCCCCCCC/C=C\CCCCCCCC(=O)OC the log10 vapour pressure (mmHg) was -5.2, the melting point was -19.9 °C and the ready biodegradability was “readily biodegradable”.
Work on OCCCCCCCCCCCCCCO yielded a melting point of 85.8 °C.
C[C@]12CCC(=O)C=C1CC[C@@H]1[C@@H]2CC[C@@]2(C)[C@H]1CC[C@]2(O)C(=O)CO gave a melting point of 215 °C.
For CC1C2Cc3ccc(O)cc3C1(C)CCN2CC1CC1 (stereo unspecified), the melting point was 202 °C.
In the case of CNC(=O)O/N=C(\C)C(C)S(C)(=O)=O (stereo unspecified), the log10 vapour pressure (mmHg) is reported as -5.7 and the melting point is reported as 87 °C.
In the case of C=CC=C(C)C, the boiling point is reported as 76.5 °C.
Nc1nc2c(ncn2COCCO)c(=O)[nH]1 gave a melting point of 255 °C.
Work on FC(F)(Cl)Br yielded a boiling point of -3.7 °C, a log10 vapour pressure (mmHg) of 3.31 and a melting point of -160 °C.
With CCOCCOCCOCC the boiling point was 188 °C, the log10 vapour pressure (mmHg) was -0.284 and the melting point was -45 °C.
Work on O=C1CSC2(CCN(CCCN3c4ccccc4Sc4ccc(Cl)cc43)CC2)N1 yielded a melting point of 155 °C.
CCCI gave a boiling point of 103 °C, a log10 vapour pressure (mmHg) of 1.63 and a melting point of -101 °C.
Compound CC(=O)c1cc2ccccc2o1 has a melting point of 76 °C.
Work on CC(C)(C)NCC(O)c1ccc(O)c(CO)c1 (stereo unspecified) yielded a melting point of 151 °C.
Cc1cc(N(CCO)CCO)ccc1N=Nc1ccc([N+](=O)[O-])cc1Cl showed a melting point of 192 °C.
NCCOP(=O)(O)O showed a melting point of 242 °C.
Brc1ccccc1I showed a boiling point of 257 °C and a melting point of 9.5 °C.
With O=C(O)CCCCCCCCCCCC(=O)O the melting point was 111 °C.
Work on O=[N+]([O-])c1ccc(Cc2ccncc2)cc1 yielded a melting point of 71 °C.
Work on Cc1c(Cl)ccc(O)c1Cl yielded a boiling point of 236 °C and a melting point of 58 °C.
In the case of O=C(O)c1ccccc1Cc1ccccc1, the melting point is reported as 118 °C.
CC(C(=O)O)c1ccc(-c2ccccc2)c(F)c1 (stereo unspecified) showed a melting point of 110 °C.
Work on FC(F)(F)C(F)(F)C(F)(F)C(F)(F)OC(F)(F)C(F)(F)C(F)(F)C(F)(F)F yielded a boiling point of 102 °C and a melting point of -100 °C.
Compound Fc1c(F)c(F)c(Sc2c(F)c(F)c(F)c(F)c2F)c(F)c1F has a melting point of 87 °C.
With N#CCCN(CCC#N)c1ccc(N=Nc2c(Cl)cc([N+](=O)[O-])cc2Cl)cc1 the ready biodegradability was “not readily biodegradable”.
CCCS(=O)(=O)CCC showed a boiling point of 270 °C, a log10 vapour pressure (mmHg) of -2.39 and a melting point of 29.5 °C.
With Cc1cccc(I)c1O the melting point was 15.5 °C.
For CC(=O)Nc1ccc(Cl)c(Cl)c1, the log10 Koc (L/kg) was 2.34.
Compound N#Cc1cccnc1 has a boiling point of 207 °C, a log10 Henry constant (atm·m³/mol) of -6.56 and a log10 Koc (L/kg) of 1.56. The log10 vapour pressure (mmHg) was -0.529, the melting point was 51 °C and the ready biodegradability was “not readily biodegradable”.
Work on ClCCCCCCCCCCl yielded a boiling point of 260 °C.
Work on C1=Cc2ccccc2C1 yielded a boiling point of 182 °C, a log10 biodegradation half-life (days) of 0.477 and a log10 vapour pressure (mmHg) of 0.0414. For the same compound, the melting point was -1.8 °C.
For C[Si](C)(Oc1ccccc1)Oc1ccccc1, the melting point was -23 °C.
Work on CCOC(=O)C=[N+]=[N-] yielded a log10 vapour pressure (mmHg) of 0.447 and a melting point of -22 °C.
Work on CCNCCO yielded a boiling point of 170 °C.
Compound N#CCc1cccc2ccccc12 has a melting point of 32.5 °C.
Work on CC(Oc1c(Cl)cccc1Cl)C1=NCCN1 (stereo unspecified) yielded a melting point of 127 °C.
Work on Clc1cc2oc3cc(Cl)c(Cl)c(Cl)c3c2cc1Cl yielded a log10 vapour pressure (mmHg) of -8.76 and a melting point of 225 °C.
Work on FC(F)CC(F)(F)F yielded a boiling point of 40 °C, a log10 vapour pressure (mmHg) of 3.05 and a melting point of -102 °C.
CCCCC=CC(=O)O showed a boiling point of 226 °C and a melting point of -19 °C.
CC/C=C\CO showed a boiling point of 138 °C.
In the case of O=C1CC[C@@H](C(=O)O)N1, the melting point is reported as 185 °C.
For Cc1ccc(Br)cc1Br, the melting point was -9.7 °C.
In the case of NCCCO, the boiling point is reported as 188 °C, the log10 vapour pressure (mmHg) is reported as -1.11 and the melting point is reported as 11 °C.
In the case of c1ccc(C2CC2)cc1, the boiling point is reported as 174 °C and the melting point is reported as -31 °C.
In the case of O=S=Nc1ccccc1, the boiling point is reported as 200 °C.
Work on O=CN1CCCCC1 yielded a boiling point of 222 °C.
Compound CCNC(=O)COC(=O)c1ccccc1 has a melting point of 106 °C.
In the case of CCCCCCCCCCCCCCCCS, the boiling point is reported as 334 °C, the log10 vapour pressure (mmHg) is reported as -4.99 and the melting point is reported as 19 °C.
For CCCC(=O)Nc1ccc(OCC(O)CNC(C)C)c(C(C)=O)c1 (stereo unspecified), the melting point was 121 °C.
Brc1ccc(Oc2c(Br)cc(Br)cc2Br)c(Br)c1 gave a logP of 7.24.
Work on CCCCCC=O yielded a boiling point of 131 °C, a log10 Henry constant (atm·m³/mol) of -3.67 and a log10 Koa of 4.41. For the same compound, the log10 vapour pressure (mmHg) was 1.05, the melting point was -56 °C and the ready biodegradability was “readily biodegradable”.
With c1cnc2[nH]ccc2c1 the melting point was 106 °C.
CC(=O)NCC1(c2ccccc2)CCN(CCCC(=O)c2ccc(F)cc2)CC1 showed a melting point of 98.5 °C.
FC(F)(F)CCBr showed a boiling point of 63.5 °C.
Compound O=C(O)C(c1ccc(Cl)cc1)c1ccc(Cl)cc1 has a melting point of 168 °C.
With c1ccc(-c2ccccn2)nc1 the boiling point was 274 °C, the log10 Koc (L/kg) was 1.6 and the melting point was 72 °C.
C=CCC1(C(C)CCC)C(=O)NC(=S)NC1=O (stereo unspecified) showed a melting point of 132 °C.
CCc1ccc(O)cc1O gave a melting point of 98.5 °C.
Work on COC(=O)CCCCCC(=O)OC yielded a melting point of -21 °C.
Compound O=C(O)Cn1c(=O)sc2cccc(Cl)c21 has a log10 Koc (L/kg) of 1.52, a log10 vapour pressure (mmHg) of -9.12 and a melting point of 193 °C.
C=CC(=O)Oc1c(Br)cc(Cl)c2cccnc12 showed a melting point of 100 °C.
With COc1ccc(CN)cc1 the boiling point was 236 °C.
Compound CC(Cl)C[N+](=O)[O-] (stereo unspecified) has a boiling point of 172 °C.
In the case of CC(=O)CC(=O)Nc1ccc(C)cc1, the ready biodegradability is reported as “readily biodegradable”.
Work on O=C1C(=O)c2ccccc2-c2ccccc21 yielded a boiling point of 360 °C and a melting point of 209 °C.
With Cc1ccc(Cl)c(O)c1Cl the boiling point was 237 °C and the melting point was 28 °C.
CCOC(CC)OCC showed a boiling point of 123 °C.
NC1=NCC(c2ccccc2)O1 (stereo unspecified) showed a melting point of 136 °C.
With CC(C)NCC(O)COc1cccc2c1C=CC2 (stereo unspecified) the melting point was 88.5 °C.
c1ccc(CN2CCOCC2)cc1 showed a boiling point of 260 °C and a melting point of 194 °C.
Nc1c(Cl)cccc1Cl gave a log10 Koc (L/kg) of 3.25 and a melting point of 39 °C.
In the case of Cc1ccc(C(F)(F)F)cc1, the boiling point is reported as 129 °C.
In the case of CCOc1ccc(NC(=O)OC(C)C)cc1OCC, the log10 vapour pressure (mmHg) is reported as -4.2 and the melting point is reported as 100 °C.
In the case of CC(C)(C)CC(C)(C)c1ccc(OCCOCC[N+](C)(C)Cc2ccccc2)cc1, the ready biodegradability is reported as “not readily biodegradable”.
For CN1C(=O)CN=C(c2ccccc2F)c2cc(Cl)ccc21, the melting point was 296 °C.
Brc1ccc(Oc2ccc(Br)cc2)cc1 gave a boiling point of 339 °C, a log10 Koa of 8.64 and a melting point of 60.5 °C.
CCC(Br)C(=O)Cl (stereo unspecified) showed a boiling point of 151 °C.
Fc1cccc(C(F)(F)F)c1 gave a boiling point of 102 °C and a melting point of -81.5 °C.
Work on O=C(Cl)c1cc([N+](=O)[O-])cc([N+](=O)[O-])c1 yielded a melting point of 74 °C.
For N#Cc1c(F)c(F)c(F)c(F)c1F, the boiling point was 162 °C and the melting point was 2.4 °C.
Cc1cc(Br)ccc1Br showed a boiling point of 236 °C and a melting point of 5.6 °C.
In the case of CCNc1nc(Cl)nc(NC(C)(C)C#N)n1, the log10 Koc (L/kg) is reported as 2.28, the log10 vapour pressure (mmHg) is reported as -6.86 and the melting point is reported as 168 °C.
In the case of CCCCCCCCCCN, the boiling point is reported as 220 °C, the log10 vapour pressure (mmHg) is reported as -1 and the melting point is reported as 17 °C. For the same compound, the ready biodegradability was “readily biodegradable”.
CCOC(=O)CCCOc1ccc(Cl)cc1C showed a log10 vapour pressure (mmHg) of -5.84 and a melting point of -1 °C.
Work on CO[C@H]1[C@H](O)[C@H](O[C@H]2CC[C@@]3(C)[C@H](CC[C@@H]4[C@@H]3CC[C@]3(C)[C@@H](C5=CC(=O)OC5)CC[C@]43O)C2)O[C@@H](C)[C@@H]1O yielded a melting point of 221 °C.
For CC(C)CCC[C@H](C)O, the boiling point was 174 °C and the melting point was -105 °C.
CC(C)=C1CCCC(C)C1 (stereo unspecified) showed a boiling point of 174 °C.

Same assay, conditions: fish
Clc1cc2oc3c(Cl)c(Cl)c(Cl)c(Cl)c3c2cc1Cl showed a log10 BCF of 3.9.
For Clc1cc2oc3cc(Cl)c(Cl)c(Cl)c3c2cc1Cl, the log10 BCF was 3.58.
For Brc1ccc(Oc2c(Br)cc(Br)cc2Br)c(Br)c1, the log10 BCF was 6.36.
